Key:
histamine receptor H1 = histamine receptor H1 (Homo sapiens, UniProt P35367); test: Inhibition of binding of a ligand (Pyrilamine) to histamine receptor H1; details: as compared to the unsubstituted vinyl counterpart (106 vs compound 415; 85 vs compound 95)
Method: The number and extent of undesirable side effects increases with increasing affinity for the H1 receptor Thus, in one aspect, compounds of the formulae herein display reduced, low or no affinity to histamine receptor H1. […] Inhibition of binding of a ligand to H1 for all variations detailed herein is determined by a suitable assay known in the art such as the assay described herein. […] In one variation, compounds of the formulae herein inhibit binding of a ligand to H1 by between about 50% to about 80%. […] In one variation, compounds of the formulae herein inhibit binding of Pyrilamine to H1 as determined in the assay described herein. In a further variation, percent inhibition of binding to H1 is measured by assays detailed herein.
The binding properties of compounds disclosed herein to a panel of aminergic G protein-coupled receptors including adrenergic receptors, dopamine receptors, serotonin receptors, histamine receptors and an imidazoline receptor may be determined. Binding properties may be assessed by methods known in the art, such as competitive binding assays. In one variation, compounds are assessed by the binding assays detailed herein. […]
In one aspect, DDT compounds display low affinity to histamine receptor H1. […] Inhibition of binding of a ligand to H1 for all variations detailed herein is determined by a suitable assay known in the art such as the assay described herein. […]

C57Bl/6J mice = test: Elevated plus maze (EPM) test; assay type: in vivo, mouse; details: 0.03, 0.1, and 1 mg/kg, oral
Text: This study aimed to test the anxiolytic properties of Compound No. 90 using the elevated plus maze (EPM) test in C57Bl/6J mice.
Male C57Bl/6J mice from Jackson Laboratories (Bar Harbor, Me.) were used for the […]. Mice were received at 6-weeks of age. Upon receipt, mice were assigned unique identification numbers (tail marked) and were group housed with 4 mice/cage in OPTI mouse ventilated cages. All animals remained housed in groups of four during the remainder of the study. All mice were acclimated to the colony room for approximately 2 week prior to testing and were subsequently tested at an average age of 8 weeks of age. During the period of acclimation, mice and rats were examined on a regular basis, handled, and weighed to assure adequate health and suitability. Animals were maintained on a 12 h/12 h light/dark cycle. The room temperature was maintained between 20 and 23° C. with a relative humidity maintained between 30% and 70%. Chow and water were provided ad libitum for the duration of the study. In each test, animals were randomly assigned across treatment groups. […]
The elevated plus maze test assessed anxiety. […] The time spent, distance traveled and entries in each arm were automatically recorded by the computer. […]
Data were analyzed using analysis of variance (ANOVA) followed by Fisher's LSD post hoc analysis when appropriate. […]

[1] = biological target: T1, human dopamine D2L receptor (Homo sapiens, UniProt P14416); test: cAMP functional assay, dopamine D2L (CHO-K1, HTRF); assay type: cell-based; design: host or cells: CHO-K1 co-expressing mitochondrial apoaequorin and Gα16; details: for inhibition at 0.005 µM: antagonist concentration 5 nM; for inhibition at 0.05 µM: antagonist concentration 50 nM; for inhibition at 0.5 µM: antagonist concentration 500 nM; for inhibition at 5 µM: antagonist concentration 5000 nM; for inhibition at 15 µM: antagonist concentration 15000 nM
T1 sequence (P14416 whole entry): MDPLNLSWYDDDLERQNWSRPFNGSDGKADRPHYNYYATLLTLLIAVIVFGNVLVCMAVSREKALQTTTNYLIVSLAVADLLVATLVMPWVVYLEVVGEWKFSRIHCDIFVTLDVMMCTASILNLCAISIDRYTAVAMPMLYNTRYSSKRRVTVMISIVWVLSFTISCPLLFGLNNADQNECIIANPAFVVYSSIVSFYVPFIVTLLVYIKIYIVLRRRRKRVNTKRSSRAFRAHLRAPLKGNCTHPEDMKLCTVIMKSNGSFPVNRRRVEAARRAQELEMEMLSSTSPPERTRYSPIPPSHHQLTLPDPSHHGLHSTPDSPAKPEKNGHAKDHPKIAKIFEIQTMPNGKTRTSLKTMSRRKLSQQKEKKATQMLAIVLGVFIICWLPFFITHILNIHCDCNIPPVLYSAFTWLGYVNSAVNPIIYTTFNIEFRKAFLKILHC
Text: To study the functional activity of compounds of the invention on the human recombinant dopamine D2L with Aequorin, GTPγS and cAMP functional assays and on the human recombinant serotonin 5-HT2A receptor with Aequorin, CHO-K1 cell lines expressing D2L or 5-HT2A recombinant receptor, mitochondrial apoaequorin and Gα16 were used for the Aequorin assay. CHO-K1 cell line expressing the recombinant D2L receptor was used for the cAMP assay and was amplified to prepare membranes used for the GTPγS assay.
The test was performed in 96 well plates. For agonist testing, 12 μL of cells (2,500 cells/well) were mixed with 6 μL of increasing concentrations of test compound or reference agonist and 6 μL of Forskolin […] (Calbiochem, cat n^o 344270). For antagonist testing, 12 μL of cells (2,500 cells/well) were mixed with 6 μL of test compound or reference antagonist at increasing concentrations. After incubation of 10 min at room temperature, 6 μL of a mix of Forskolin […] final concentration and the reference agonist at a final concentration corresponding to the EC80 were added. The plates were then incubated for 30 min at room temperature.

[2] = biological target: T1, human dopamine D2L receptor; test: Dopamine D2L [35S]GTPγS functional assay (SPA, CHO membranes); assay type: biochemical; details: read-out: D2L GTPgS % Inhibition
Method: To determine for agonist or antagonist activity of compounds of the invention in functional assays, human recombinant dopamine D2L receptor stably expressed in Chinese hamster ovary (CHO) cells (Senogles S E et al. J Biol Chem. 265(8): 4507, 1990) was used. Compounds of invention were pre-incubated with the membranes (0.1 mg/mL) and 10 mM GDP in modified HEPES buffer (20 mM HEPES, pH 7.4, 100 mM NaCl, 10 mM MgCl2, 1 mM DTT, 1 mM EDTA) for 20 min. and Scintillation Proximity Assay (SPA) beads were added for another 60 min. at 30° C. The reaction was initiated by 0.3 nM [^35S]GTPγS for an additional 15 min. incubation period. […] Compounds were screened at […] or lower, using 0.4% DMSO as vehicle. Assay results are presented as the percent response of specific binding in Table 12.

[3] = antagonist concentration 150 nM
[4] = antagonist concentration 1500 nM

histamine receptor H1, sequence (P35367 whole entry): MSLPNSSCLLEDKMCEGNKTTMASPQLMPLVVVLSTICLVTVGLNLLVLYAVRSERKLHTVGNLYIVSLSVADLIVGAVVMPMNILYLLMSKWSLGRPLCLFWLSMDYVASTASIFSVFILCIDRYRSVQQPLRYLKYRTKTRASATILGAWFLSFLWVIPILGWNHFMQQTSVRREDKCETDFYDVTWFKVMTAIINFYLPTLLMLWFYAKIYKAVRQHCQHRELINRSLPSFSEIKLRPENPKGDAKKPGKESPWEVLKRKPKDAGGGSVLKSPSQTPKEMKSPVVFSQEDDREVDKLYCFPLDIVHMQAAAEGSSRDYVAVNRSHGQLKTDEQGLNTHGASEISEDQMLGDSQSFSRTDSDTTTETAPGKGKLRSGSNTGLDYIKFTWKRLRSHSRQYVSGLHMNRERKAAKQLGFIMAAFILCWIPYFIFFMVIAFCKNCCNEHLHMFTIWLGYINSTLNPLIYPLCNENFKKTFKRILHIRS

Structure (SMILES) | binding affinity to H1 (histamine receptor H1) | anxiolytic-like effect in the EPM test compared to vehicle (C57Bl/6J mice) | inhibition at 0.005 µM [1] [%] | inhibition at […] ([1]; antagonist concentration 15 nM) [%] | inhibition at 0.05 µM [1] [%] | inhibition at […] [1, 3] [%] | inhibition at 0.5 µM [1] [%] | inhibition at […] [1, 4] [%] | inhibition at 5 µM [1] [%] | inhibition at 15 µM [1] [%] | inhibition at 0.001 µM ([2]; conc. 1 nM) [%] | inhibition at 0.003 µM ([2]; conc. 3 nM) [%] | inhibition at 0.01 µM ([2]; conc. 10 nM) [%] | inhibition at 0.03 µM ([2]; conc. 30 nM) [%] | inhibition at 0.1 µM ([2]; conc. 100 nM) [%]
C/C(=C\n1c2c(c3cc(Cl)ccc31)CN(C)CC2)c1ccccc1 [compound 106, (E)-8-chloro-2,3,4,5-tetrahydro-2-methyl-5-(2-phenylprop-1-enyl)-1H-pyrido[4,3-b]indole] | lower binding affinity to H1 |  |  |  |  |  |  |  |  |  |  |  |  |  | 
C/C(=C\n1c2c(c3cc(Cl)ccc31)CN(C)CC2)c1ccncc1 [Compound 90, (E)-8-chloro-2,3,4,5-tetrahydro-2-methyl-5-(2-(pyridin-4-yl)prop-1-enyl)-1H-pyrido[4,3-b]indole] |  | did not exert any anxiolytic-like effect | 84.1 | 91.7 | 94.7 | 94 | 93.7 | 100 | 100 | 102 |  |  |  |  | 
C/C(=C\n1c2c(c3cc(Cl)ccc31)CN(C)CC2)c1ccc(F)cc1 [Compound 83, (E)-8-chloro-5-(2-(4-fluorophenyl)prop-1-enyl)-2,3,4,5-tetrahydro-2-methyl-1H-pyrido[4,3-b]indole] |  |  | 75.5 | 97.8 | 98.2 | 104 | 106 | 107 | 106 | 111 | 16 | 28 | 49 | 55 | 77
